# How the values were obtained:
# [1] = molecular target: Calcium/calmodulin-dependent protein kinase kinase 1 (Homo sapiens) (UniProt Q8N5S9); conditions: at 10 µM
# [2] = molecular target: Calcium/calmodulin-dependent protein kinase type 1G (Homo sapiens) (UniProt Q96NX5); assay: Selectivity interaction (KinomeScan (DiscoverX)) EUB0001049a CAMK1G; conditions: at 1 µM
# [3] = molecular target: T1, Uncharacterized serine/threonine-protein kinase SBK3 (Homo sapiens) (UniProt P0C264); assay: Selectivity interaction (KinomeScan (DiscoverX)) EUB0001049a SBK3; conditions: at 1 µM
# T1 sequence (whole entry): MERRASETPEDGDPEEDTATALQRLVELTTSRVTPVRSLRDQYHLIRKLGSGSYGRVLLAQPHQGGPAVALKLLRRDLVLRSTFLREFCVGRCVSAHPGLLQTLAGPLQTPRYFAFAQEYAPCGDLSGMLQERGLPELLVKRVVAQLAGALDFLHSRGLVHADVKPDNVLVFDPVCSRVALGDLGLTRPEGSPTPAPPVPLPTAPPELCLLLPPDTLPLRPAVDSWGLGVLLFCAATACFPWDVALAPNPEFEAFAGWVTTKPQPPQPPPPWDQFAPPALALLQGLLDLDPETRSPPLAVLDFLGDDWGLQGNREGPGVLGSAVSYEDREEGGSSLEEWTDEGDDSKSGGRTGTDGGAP
# [4] = molecular target: T2, Serine/threonine-protein kinase ULK3 (Homo sapiens) (UniProt Q6PHR2); assay: Selectivity interaction (KinomeScan (DiscoverX)) EUB0001049a ULK3; conditions: at 1 µM
# T2 sequence (whole entry): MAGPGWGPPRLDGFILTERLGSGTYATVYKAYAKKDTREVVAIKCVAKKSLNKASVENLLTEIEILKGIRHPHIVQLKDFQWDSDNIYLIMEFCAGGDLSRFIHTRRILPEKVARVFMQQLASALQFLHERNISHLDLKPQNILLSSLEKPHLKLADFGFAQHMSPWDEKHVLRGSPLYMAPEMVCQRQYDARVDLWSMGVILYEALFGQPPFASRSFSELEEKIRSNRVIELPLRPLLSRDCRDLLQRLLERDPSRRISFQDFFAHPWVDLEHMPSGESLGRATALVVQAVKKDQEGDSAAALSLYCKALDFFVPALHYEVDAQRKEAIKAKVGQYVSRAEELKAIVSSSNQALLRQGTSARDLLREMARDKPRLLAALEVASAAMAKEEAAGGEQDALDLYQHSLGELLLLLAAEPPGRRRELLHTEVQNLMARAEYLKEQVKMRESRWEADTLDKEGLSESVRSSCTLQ
# [5] = molecular target: Tyrosine-protein kinase JAK1 (Homo sapiens, UniProt P23458); assay: Selectivity interaction (KinomeScan (DiscoverX)) EUB0000655a JAK1; conditions: at 10 µM
# [6] = molecular target: Mitogen-activated protein kinase 7 (Homo sapiens) (UniProt Q13164); assay: Selectivity interaction (KinomeScan (DiscoverX)) EUB0000045b MAPK7
# [7] = molecular target: T3, Mitogen-activated protein kinase kinase kinase 12 (Homo sapiens) (UniProt Q12852); assay: Selectivity interaction (KinomeScan (DiscoverX)) EUB0000045b MAP3K12
# T3 sequence (whole entry): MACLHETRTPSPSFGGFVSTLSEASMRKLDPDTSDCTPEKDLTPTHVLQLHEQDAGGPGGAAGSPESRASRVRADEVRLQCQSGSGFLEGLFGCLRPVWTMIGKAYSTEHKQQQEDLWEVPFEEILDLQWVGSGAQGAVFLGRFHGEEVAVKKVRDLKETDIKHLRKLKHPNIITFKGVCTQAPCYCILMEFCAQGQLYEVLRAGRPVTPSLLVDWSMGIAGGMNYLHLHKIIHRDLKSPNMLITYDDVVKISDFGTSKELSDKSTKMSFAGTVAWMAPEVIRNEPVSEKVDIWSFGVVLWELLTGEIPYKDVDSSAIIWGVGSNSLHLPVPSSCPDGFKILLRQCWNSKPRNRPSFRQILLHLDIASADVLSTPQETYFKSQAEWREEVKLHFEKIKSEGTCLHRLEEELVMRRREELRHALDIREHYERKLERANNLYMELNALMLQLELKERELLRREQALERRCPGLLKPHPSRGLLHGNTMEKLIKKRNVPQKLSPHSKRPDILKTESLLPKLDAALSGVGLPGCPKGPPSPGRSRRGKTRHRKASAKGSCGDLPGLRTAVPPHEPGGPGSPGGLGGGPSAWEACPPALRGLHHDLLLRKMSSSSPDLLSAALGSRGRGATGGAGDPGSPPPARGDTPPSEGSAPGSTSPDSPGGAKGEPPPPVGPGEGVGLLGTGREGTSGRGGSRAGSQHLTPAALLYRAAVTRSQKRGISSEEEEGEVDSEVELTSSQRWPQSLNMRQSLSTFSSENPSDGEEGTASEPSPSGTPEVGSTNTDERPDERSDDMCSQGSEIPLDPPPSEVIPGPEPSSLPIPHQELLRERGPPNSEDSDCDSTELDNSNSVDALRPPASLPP
# [8] = molecular target: Eukaryotic translation initiation factor 2-alpha kinase 1 (Homo sapiens) (UniProt Q9BQI3); assay: Selectivity interaction (KinomeScan (DiscoverX)) EUB0000229b EIF2AK1; conditions: at 10 µM
# [9] = molecular target: Casein kinase II subunit alpha' (Homo sapiens) (UniProt P19784); conditions: at 10 µM
# [10] = molecular target: T4, MAP/microtubule affinity-regulating kinase 4 (Homo sapiens) (UniProt Q96L34); assay: Selectivity interaction (KinomeScan (DiscoverX)) EUB0000618a MARK4; conditions: at 10 µM
# T4 sequence (whole entry): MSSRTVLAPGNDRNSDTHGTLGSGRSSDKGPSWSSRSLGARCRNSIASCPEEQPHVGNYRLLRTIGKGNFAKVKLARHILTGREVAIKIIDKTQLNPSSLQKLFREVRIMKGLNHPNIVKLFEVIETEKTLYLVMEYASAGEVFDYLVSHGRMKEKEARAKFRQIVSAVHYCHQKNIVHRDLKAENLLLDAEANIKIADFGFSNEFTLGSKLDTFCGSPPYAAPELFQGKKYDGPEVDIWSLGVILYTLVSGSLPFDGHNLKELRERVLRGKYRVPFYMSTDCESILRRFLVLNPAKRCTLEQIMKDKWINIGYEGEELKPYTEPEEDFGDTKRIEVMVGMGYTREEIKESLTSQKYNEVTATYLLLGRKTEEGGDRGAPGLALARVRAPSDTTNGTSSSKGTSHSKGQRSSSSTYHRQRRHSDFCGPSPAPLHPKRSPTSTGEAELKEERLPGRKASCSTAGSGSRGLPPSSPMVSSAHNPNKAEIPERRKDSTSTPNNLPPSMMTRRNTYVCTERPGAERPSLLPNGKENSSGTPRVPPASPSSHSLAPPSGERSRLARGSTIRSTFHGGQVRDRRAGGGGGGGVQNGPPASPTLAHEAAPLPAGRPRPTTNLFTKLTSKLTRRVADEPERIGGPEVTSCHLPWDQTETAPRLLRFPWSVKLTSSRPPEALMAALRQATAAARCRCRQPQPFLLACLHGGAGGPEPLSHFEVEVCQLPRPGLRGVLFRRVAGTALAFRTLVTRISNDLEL
# Mitogen-activated protein kinase 7 (Homo sapiens), sequence (Q13164 2-816 limits assumed): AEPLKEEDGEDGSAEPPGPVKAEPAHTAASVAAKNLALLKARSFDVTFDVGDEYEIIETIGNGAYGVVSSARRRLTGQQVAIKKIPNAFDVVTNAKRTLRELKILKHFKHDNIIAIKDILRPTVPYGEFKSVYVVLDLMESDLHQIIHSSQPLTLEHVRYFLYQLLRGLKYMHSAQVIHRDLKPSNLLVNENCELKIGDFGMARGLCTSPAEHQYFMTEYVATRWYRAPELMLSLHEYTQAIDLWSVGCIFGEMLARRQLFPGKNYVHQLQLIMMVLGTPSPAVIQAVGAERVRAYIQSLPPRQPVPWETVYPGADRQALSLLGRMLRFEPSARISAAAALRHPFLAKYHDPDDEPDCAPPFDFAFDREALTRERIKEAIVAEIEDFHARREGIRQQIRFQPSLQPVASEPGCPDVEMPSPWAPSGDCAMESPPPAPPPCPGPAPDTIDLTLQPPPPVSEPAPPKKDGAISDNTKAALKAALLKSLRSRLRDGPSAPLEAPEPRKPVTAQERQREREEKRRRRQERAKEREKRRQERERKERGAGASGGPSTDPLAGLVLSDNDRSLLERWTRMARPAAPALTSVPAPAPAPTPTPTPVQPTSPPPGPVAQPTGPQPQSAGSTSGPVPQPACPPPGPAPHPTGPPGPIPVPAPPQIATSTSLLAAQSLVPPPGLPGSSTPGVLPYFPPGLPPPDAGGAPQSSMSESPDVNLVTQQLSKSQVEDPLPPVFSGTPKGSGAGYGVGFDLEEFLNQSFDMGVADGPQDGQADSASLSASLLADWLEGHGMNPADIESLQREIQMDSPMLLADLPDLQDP
# Calcium/calmodulin-dependent protein kinase type 1G (Homo sapiens), sequence (Q96NX5 whole entry): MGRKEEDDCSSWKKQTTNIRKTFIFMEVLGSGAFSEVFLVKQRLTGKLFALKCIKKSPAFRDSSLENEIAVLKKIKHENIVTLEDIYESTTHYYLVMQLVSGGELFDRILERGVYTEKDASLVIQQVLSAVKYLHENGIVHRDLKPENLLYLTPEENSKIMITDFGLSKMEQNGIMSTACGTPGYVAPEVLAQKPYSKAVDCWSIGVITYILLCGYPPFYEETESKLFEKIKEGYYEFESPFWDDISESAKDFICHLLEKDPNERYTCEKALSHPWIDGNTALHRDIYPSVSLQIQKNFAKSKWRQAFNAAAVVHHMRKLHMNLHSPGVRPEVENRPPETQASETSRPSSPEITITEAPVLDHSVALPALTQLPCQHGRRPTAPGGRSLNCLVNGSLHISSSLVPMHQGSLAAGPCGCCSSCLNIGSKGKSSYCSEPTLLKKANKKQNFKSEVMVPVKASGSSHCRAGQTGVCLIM
# Calcium/calmodulin-dependent protein kinase kinase 1 (Homo sapiens), sequence (Q8N5S9 whole entry, looked up): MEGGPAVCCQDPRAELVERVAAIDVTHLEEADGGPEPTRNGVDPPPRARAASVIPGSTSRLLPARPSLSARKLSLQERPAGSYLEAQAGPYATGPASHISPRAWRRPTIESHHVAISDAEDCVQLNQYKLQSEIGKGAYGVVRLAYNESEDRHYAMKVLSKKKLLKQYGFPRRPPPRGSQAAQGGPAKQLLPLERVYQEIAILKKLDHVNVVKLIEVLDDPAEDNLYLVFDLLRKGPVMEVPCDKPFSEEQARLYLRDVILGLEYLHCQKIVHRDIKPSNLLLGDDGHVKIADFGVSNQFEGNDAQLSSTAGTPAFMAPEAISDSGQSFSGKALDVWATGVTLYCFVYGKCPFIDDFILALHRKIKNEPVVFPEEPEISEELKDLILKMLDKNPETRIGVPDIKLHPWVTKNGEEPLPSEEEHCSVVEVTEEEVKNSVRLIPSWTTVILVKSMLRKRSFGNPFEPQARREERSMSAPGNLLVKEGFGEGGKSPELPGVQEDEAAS
# Casein kinase II subunit alpha' (Homo sapiens), sequence (P19784 whole entry, looked up): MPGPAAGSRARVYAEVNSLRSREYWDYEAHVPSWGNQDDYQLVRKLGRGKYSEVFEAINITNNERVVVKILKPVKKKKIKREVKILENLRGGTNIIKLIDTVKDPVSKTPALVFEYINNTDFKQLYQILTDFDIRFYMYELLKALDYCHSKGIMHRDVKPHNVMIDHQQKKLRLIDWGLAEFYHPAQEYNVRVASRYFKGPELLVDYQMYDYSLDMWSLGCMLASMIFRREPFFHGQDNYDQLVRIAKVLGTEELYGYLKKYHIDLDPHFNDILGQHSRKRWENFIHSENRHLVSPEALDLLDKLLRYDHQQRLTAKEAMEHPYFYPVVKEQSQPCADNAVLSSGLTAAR
# Tyrosine-protein kinase JAK1, sequence (P23458 whole entry): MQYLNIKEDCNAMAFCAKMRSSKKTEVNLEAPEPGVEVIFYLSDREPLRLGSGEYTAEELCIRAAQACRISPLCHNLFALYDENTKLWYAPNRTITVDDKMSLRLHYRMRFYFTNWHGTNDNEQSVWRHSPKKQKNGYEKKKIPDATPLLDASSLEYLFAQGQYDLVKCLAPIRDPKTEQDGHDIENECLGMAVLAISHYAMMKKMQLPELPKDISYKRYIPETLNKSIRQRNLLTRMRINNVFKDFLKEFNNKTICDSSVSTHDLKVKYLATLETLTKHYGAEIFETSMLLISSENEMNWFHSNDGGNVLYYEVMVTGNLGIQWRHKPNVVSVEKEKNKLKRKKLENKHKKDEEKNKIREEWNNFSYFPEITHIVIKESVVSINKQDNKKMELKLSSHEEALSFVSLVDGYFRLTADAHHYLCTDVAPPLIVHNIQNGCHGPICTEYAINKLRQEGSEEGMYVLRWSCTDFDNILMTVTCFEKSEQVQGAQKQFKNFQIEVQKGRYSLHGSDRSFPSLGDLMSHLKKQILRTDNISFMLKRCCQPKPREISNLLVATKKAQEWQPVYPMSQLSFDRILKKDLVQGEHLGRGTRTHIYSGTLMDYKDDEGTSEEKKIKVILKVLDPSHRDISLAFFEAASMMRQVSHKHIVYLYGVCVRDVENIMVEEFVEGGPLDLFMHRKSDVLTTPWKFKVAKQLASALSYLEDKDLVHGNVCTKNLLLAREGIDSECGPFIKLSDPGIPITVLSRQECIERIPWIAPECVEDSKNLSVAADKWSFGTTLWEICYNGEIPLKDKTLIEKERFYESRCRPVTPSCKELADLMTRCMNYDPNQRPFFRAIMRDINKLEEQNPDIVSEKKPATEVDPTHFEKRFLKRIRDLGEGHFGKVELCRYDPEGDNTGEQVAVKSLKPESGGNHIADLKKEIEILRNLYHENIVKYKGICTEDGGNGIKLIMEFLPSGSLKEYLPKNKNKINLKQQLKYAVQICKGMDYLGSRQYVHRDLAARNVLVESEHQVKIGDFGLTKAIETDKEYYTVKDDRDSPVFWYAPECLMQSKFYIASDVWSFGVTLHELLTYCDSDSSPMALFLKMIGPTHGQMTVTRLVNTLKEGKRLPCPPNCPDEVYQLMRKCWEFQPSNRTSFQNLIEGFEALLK
# Eukaryotic translation initiation factor 2-alpha kinase 1 (Homo sapiens), sequence (Q9BQI3 whole entry): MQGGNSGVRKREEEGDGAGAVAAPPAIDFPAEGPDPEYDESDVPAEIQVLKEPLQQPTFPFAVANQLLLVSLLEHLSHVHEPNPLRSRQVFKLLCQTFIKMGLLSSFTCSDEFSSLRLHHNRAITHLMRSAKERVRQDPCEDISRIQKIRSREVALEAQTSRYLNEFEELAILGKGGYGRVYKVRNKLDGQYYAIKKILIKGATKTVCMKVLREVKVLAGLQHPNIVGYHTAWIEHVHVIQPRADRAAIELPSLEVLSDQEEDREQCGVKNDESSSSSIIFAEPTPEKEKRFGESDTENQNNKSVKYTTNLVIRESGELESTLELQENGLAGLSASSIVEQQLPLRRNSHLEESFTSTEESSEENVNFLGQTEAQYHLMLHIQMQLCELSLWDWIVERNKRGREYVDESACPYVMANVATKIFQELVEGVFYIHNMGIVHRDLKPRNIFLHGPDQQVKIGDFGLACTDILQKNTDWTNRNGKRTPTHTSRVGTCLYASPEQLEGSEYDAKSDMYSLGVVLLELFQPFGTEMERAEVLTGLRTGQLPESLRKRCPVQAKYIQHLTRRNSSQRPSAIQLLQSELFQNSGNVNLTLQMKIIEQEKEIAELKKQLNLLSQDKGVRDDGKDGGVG
smiles,measurement,setting,value
CCN(CC)CCCCNc1ncc2cc(-c3cc(OC)cc(OC)c3)c(NC(=O)NC(C)(C)C)nc2n1,% of control,[1],100%
COc1cc(Nc2nc(C)cc(-c3cnn4nc(OC)ccc34)n2)cc(C(F)(F)F)c1,% of control,[2],95%
same,% of control,[3],87%
same,% of control,[4],79%
CN(C)CCOc1ccc(-c2nc(-c3ccncc3)c(-c3ccc4c(c3)CC/C4=N\O)[nH]2)cc1,% of control,[5],100%
C=CC(=O)Nc1cc(-n2c(=O)ccc3cnc4ccc(-c5ccc(NS(C)(=O)=O)cc5)cc4c32)ccc1C,% of control,[6]; at 1 µM,100%
same,% of control,[6]; at 10 µM,100%
same,% of control,[7]; at 1 µM,70%
same,% of control,[7]; at 10 µM,59%
COc1cc(N(C)c2ccnc3ccc(C(F)(F)F)cc23)cc(OC)c1OC,% binding,[8],74%
Cc1cc([C@@H](C)Nc2ccccc2C(=O)O)c2nc(N3CCOCC3)cc(=O)n2c1 [AZD-6482],% of control,[9],100%
O[C@H]1CC[C@H](Nc2ncc3nc(Nc4c(F)cc(F)cc4F)n([C@H]4CCOC4)c3n2)CC1,% of control,[10],100%

# Source: ChEMBL document CHEMBL5465560, “Selectivity Literature for EUbOPEN Chemogenomic Library” (2024)
